Measured values reported in ChEMBL document CHEMBL5715937, “In vitro activity of Bcr-Abl inhibitors AMN107 and BMS-354825 against clinically relevant imatinib-resistant Abl kinase domain mutants” (Cancer Res, 2005).
The source made the active and inactive calls. The calls are words filed in the database; no cut-off is given here.

Columns and labels:
[1] = Inhibition of BCR-ABL V379l mutant (unknown origin) expressed in mouse BaF3 cells assessed as inhibition of tyrosine phosphorylation incubated for 3 hrs by immunoblotting analysis; type: cell-based; settings: BaF3, 3 h
BaF3 [2] = test: Induction of apoptosis in mouse BaF3 cells expressing Bcr-Abl F317L mutant at 30 to 300 nM incubated for 72 hrs by Annexin V-phycoerythrin and 7-amino-actinomycin D staining based PCA instrument analysis; type: functional, cell-based; settings: dose 30-300 nM
cells [3] = settings: Mus musculus, BaF3, 3 h
cells [4] = settings: Mus musculus, BaF3, 3 h; remark: listed apart in the source
[5] = Inhibition of BCR-ABL Y253F mutant (unknown origin) expressed in mouse BaF3 cells assessed as inhibition of cell growth incubated for 72 hrs by […] CellTiter96 viability analysis
BaF3 [6] = test: Induction of apoptosis in mouse BaF3 cells at 30 to 1500 nM incubated for 72 hrs by Annexin V-phycoerythrin and 7-amino-actinomycin D staining based PCA instrument analysis relative to control; type: toxicity, cell-based; settings: baf3, 72 h, 1.5 µM, dose 30-1500 nM
BaF3 [7] = test: Induction of apoptosis in mouse BaF3 cells expressing Bcr-Abl T315l mutant assessed as increase in apoptotic cells at 1500 nM incubated for 72 hrs by Annexin V-phycoerythrin and 7-amino-actinomycin D staining based PCA instrument analysis relative to control; type: functional
[8] = Inhibition of BCR-ABL F359V mutant (unknown origin) expressed in mouse BaF3 cells assessed as inhibition of cell growth incubated for 72 hrs by […] CellTiter96 viability analysis
BaF3 [9] = test: Induction of apoptosis in mouse BaF3 cells expressing Bcr-Abl M351T mutant at 30 to 300 nM incubated for 72 hrs by Annexin V-phycoerythrin and 7-amino-actinomycin D staining based PCA instrument analysis; type: functional, cell-based; settings: dose 30-300 nM
BaF3 [10] = test: Induction of apoptosis in mouse BaF3 cells expressing Bcr-Abl F311L mutant at 30 to 300 nM incubated for 72 hrs by Annexin V-phycoerythrin and 7-amino-actinomycin D staining based PCA instrument analysis; type: functional, cell-based; settings: dose 30-300 nM
BaF3 [11] = test: Induction of apoptosis in mouse BaF3 cells expressing Bcr-Abl G250E mutant assessed as increase in apoptotic cells at 1500 nM incubated for 72 hrs by Annexin V-phycoerythrin and 7-amino-actinomycin D staining based PCA instrument analysis relative to control; type: functional
[12] = Inhibition of BCR-ABL H396P mutant (unknown origin) expressed in mouse BaF3 cells assessed as inhibition of tyrosine phosphorylation incubated for 3 hrs by immunoblotting analysis; type: cell-based; settings: BaF3, 3 h
BaF3 [13] = test: Induction of apoptosis in mouse BaF3 cells expressing Bcr-Abl H396R mutant at 30 to 300 nM incubated for 72 hrs by Annexin V-phycoerythrin and 7-amino-actinomycin D staining based PCA instrument analysis; type: functional, cell-based; settings: dose 30-300 nM
cells [14] = settings: Mus musculus, BaF3, 3 h; remark: listed apart in the source
BaF3 [15] = test: Induction of apoptosis in mouse BaF3 cells expressing Bcr-Abl H396P mutant assessed as increase in apoptotic cells at 1500 nM incubated for 72 hrs by Annexin V-phycoerythrin and 7-amino-actinomycin D staining based PCA instrument analysis relative to control; type: functional
BaF3 [16] = test: Induction of apoptosis in mouse BaF3 cells expressing wild-type Bcr-Abl at 30 to 300 nM incubated for 72 hrs by Annexin V-phycoerythrin and 7-amino-actinomycin D staining based PCA instrument analysis; type: functional, cell-based; settings: dose 30-300 nM
BaF3 [17] = test: Induction of apoptosis in mouse BaF3 cells expressing Bcr-Abl V379l mutant assessed as increase in apoptotic cells at 1500 nM incubated for 72 hrs by Annexin V-phycoerythrin and 7-amino-actinomycin D staining based PCA instrument analysis relative to control; type: functional
[18] = Inhibition of BCR-ABL M244V mutant (unknown origin) expressed in mouse BaF3 cells assessed as inhibition of cell growth incubated for 72 hrs by […] CellTiter96 viability analysis; settings: BaF3, time 72 hrs, condition chronic myelogenous leukemia
[19] = Inhibition of BCR-ABL Q252H mutant (unknown origin) expressed in mouse BaF3 cells assessed as inhibition of cell growth incubated for 72 hrs by […] CellTiter96 viability analysis
BaF3 [20] = test: Induction of apoptosis in mouse BaF3 cells expressing Bcr-Abl E255K mutant assessed as increase in apoptotic cells at 1500 nM incubated for 72 hrs by Annexin V-phycoerythrin and 7-amino-actinomycin D staining based PCA instrument analysis relative to control; type: functional
BaF3 [21] = test: Induction of apoptosis in mouse BaF3 cells expressing Bcr-Abl F317L mutant assessed as increase in apoptotic cells at 1500 nM incubated for 72 hrs by Annexin V-phycoerythrin and 7-amino-actinomycin D staining based PCA instrument analysis relative to control; type: functional
[22] = Inhibition of BCR-ABL F311L mutant (unknown origin) expressed in mouse BaF3 cells assessed as inhibition of cell growth incubated for 72 hrs by […] CellTiter96 viability analysis
BaF3 [23] = test: Induction of apoptosis in mouse BaF3 cells expressing wild-type Bcr-Abl assessed as increase in apoptotic cells at 1500 nM incubated for 72 hrs by Annexin V-phycoerythrin and 7-amino-actinomycin D staining based PCA instrument analysis relative to control; type: functional
cells [24] = settings: Mus musculus, BaF3, 72 h
[25] = Inhibition of BCR-ABL Y253H mutant (unknown origin) expressed in mouse BaF3 cells assessed as inhibition of cell growth incubated for 72 hrs by […] CellTiter96 viability analysis
[26] = Inhibition of BCR-ABL F317L mutant (unknown origin) expressed in mouse BaF3 cells assessed as inhibition of cell growth incubated for 72 hrs by […] CellTiter96 viability analysis
[27] = Inhibition of BCR-ABL L387M mutant (unknown origin) expressed in mouse BaF3 cells assessed as inhibition of tyrosine phosphorylation incubated for 3 hrs by immunoblotting analysis; type: cell-based; settings: BaF3, 3 h
BaF3 [28] = test: Induction of apoptosis in mouse BaF3 cells expressing Bcr-Abl T315I mutant at 30 to 1500 nM incubated for 72 hrs by Annexin V-phycoerythrin and 7-amino-actinomycin D staining based PCA instrument analysis relative to control; type: functional, cell-based; settings: dose 30-1500 nM
BaF3 [29] = test: Induction of apoptosis in mouse BaF3 cells expressing Bcr-Abl M244V mutant assessed as increase in apoptotic cells at 1500 nM incubated for 72 hrs by Annexin V-phycoerythrin and 7-amino-actinomycin D staining based PCA instrument analysis relative to control; type: functional
cells [30] = settings: Mus musculus, BaF3, 3 h; remark: listed apart in the source
[31] = Inhibition of BCR-ABL G250E mutant (unknown origin) expressed in mouse BaF3 cells assessed as inhibition of cell growth incubated for 72 hrs by […] CellTiter96 viability analysis
cells [32] = settings: Mus musculus, BaF3, 3 h; remark: listed apart in the source
[33] = BaF3, time 72 hrs, condition chronic myelogenous leukemia

For `Cc1cn(-c2cc(NC(=O)c3ccc(C)c(Nc4nccc(-c5cccnc5)n4)c3)cc(C(F)(F)F)c2)cn1` [NILOTINIB], the IC50 [1] was 15 nM, the Activity (BaF3 [2]) was “Active” and the IC50 (cells [3]) was 22 nM. For the same compound, the IC50 (cells [4]) was 47 nM, the IC50 ([5]; BaF3, 72 h) was 125 nM and the IC90 [5, 33] was 215 nM. The Activity (BaF3 [6]) was “Non-Toxic”, the Activity (BaF3 [7]) was 3% and the IC50 ([8]; BaF3, 72 h) was 175 nM. For the same compound, the IC90 [8, 33] was 385 nM, the Activity (BaF3 [9]) was “Active” and the Activity (BaF3 [10]) was “Active”. The Activity (BaF3 [11]) was >90%, the IC50 [12] was 70 nM and the Activity (BaF3 [13]) was “Active”. The IC50 (cells [14]) was 43 nM, the Activity (BaF3 [15]) was >90% and the Activity (BaF3 [16]) was “Active”. For the same compound, the Activity (BaF3 [17]) was >90%, the IC90 [18] was 56 nM and the IC50 ([19]; BaF3, 72 h) was 70 nM. For the same compound, the IC90 [19, 33] was 156 nM, the Activity (BaF3 [20]) was >90% and the Activity (BaF3 [21]) was >90%. The IC50 ([22]; BaF3, 72 h) was 23 nM, the IC90 [22, 33] was 48 nM and the Activity (BaF3 [23]) was >90%. For the same compound, the IC50 (cells [24]) was > 2000 nM, the IC50 ([25]; BaF3, 72 h) was 450 nM and the IC90 [25, 33] was 1020 nM. For the same compound, the IC50 ([26]; BaF3, 72 h) was 50 nM, the IC90 [26, 33] was 116 nM and the IC50 [27] was 33 nM. The Activity (BaF3 [28]) was “inactive”, the Activity (BaF3 [29]) was >90% and the IC50 (cells [30]) was 155 nM. The IC50 ([31]; BaF3, 72 h) was 48 nM, the IC90 [31, 33] was 152 nM and the IC50 (cells [32]) was > 5000 nM.
